Test results reported in patent US20180153870A1, “BIPERIDEN FOR TREATING CANCER” (Universitätsklinikum Hamburg-Eppendorf, priority 2015, published 2018).

What was measured:
Assay type in all cases: cell-based, human
[1] = system: L3.6pl res; assay: MTT proliferation assay, L3.6pl res (gemcitabine-resistant)
Procedure: (§1) The cell lines used for the proliferation assays were cultured in different media. The cell lines Pan-1, Panc-2 and BxPC3, which have been derived from the human ductal pancreatic adenocarcinoma (PDAC), were cultured in Dulbecco's modified Eagle medium (DMEM) (Sigma), that was supplemented with 1% penicillin/streptomycin (Life technologies/GIBCO 15140-122) and 10% fetal bovine serum (Life technologies/GIBCO 100500-064). The cell line L3.6pl was cultured in RPMI 1640 medium (Life technologies/GIBCO 72400-21) that was supplemented with 1% penicillin/streptomycin and 10% fetal bovine serum. A sub-clone of the cell line L3.6pl, that was designated L3.6pl res, was resistant to gemcitabine and was also cultured in RPMI 1640 medium (Life technologies/GIBCO 72400-21) that was supplemented with 1% penicillin/streptomycin, 10% fetal bovine serum and 2 μM gemcitabine (GEMZAR, Lily). The human immortalized, non-malignant cell line of the ductal pancreatic epithelium (HPDE) was cultured in keratinocyte-SFM (Life technologies/GIBCO) that was supplemented with 10% fetal bovine serum, 1% penicillin/streptomycin and 1% epidermal growth factor (EGF).
(§2) The proliferation rates of the cell lines were determined after stimulation with (i) biperiden, (ii) mepazine, and (iii) stimulation with both active ingredients. For this purpose, cells were seeded in plates with 96 wells at 5000 cells per well and incubated overnight at 37° C. and 5% CO2. Next morning, the blanket values were measured at 490 nm in an ELISA reader (FLUOstar Omega, BMG LABTECH) after the addition of 100 μL medium and 20 μL MTT substrate (CellTiter 96 AQueous One Solution Cell Proliferation Assay, Promega). Biperiden was added in increasing concentrations (3.71 μg/ml, 11.1 μg/ml und 29.6 μg/ml) in the form of solutions of biperiden hydrochloride (B5311 SIGMA-Aldrich, USA) and DMSO. […] The ex-tinction was measured every 24 hours during a period of 72 hours.
(§3) The normal distribution of the results was analyzed by Kolgomorov-Smirnov test and Shapiro-Wilk test. Non-parametric variables were analyzed using the Mann-Whitney-U test. […]

[2] = system: Panc-2; assay: MTT proliferation assay, Panc-2
Procedure: as §1, §2, §3

[3] = system: pancreatic cancer cell lines; assay: MTT proliferation assay, all pancreatic cancer cell lines; settings: in the presence of biperiden, mepazine or a combination
Procedure: The cell lines used for the proliferation assays were cultured in different media. The cell lines Pan-1, Panc-2 and BxPC3, which have been derived from the human ductal pancreatic adenocarcinoma (PDAC), were cultured in Dulbecco's modified Eagle medium (DMEM) (Sigma), that was supplemented with 1% penicillin/streptomycin (Life technologies/GIBCO 15140-122) and 10% fetal bovine serum (Life technologies/GIBCO 100500-064). The cell line L3.6pl was cultured in RPMI 1640 medium (Life technologies/GIBCO 72400-21) that was supplemented with 1% penicillin/streptomycin and 10% fetal bovine serum. […]
The proliferation rates of the cell lines were determined after stimulation with (i) biperiden, (ii) mepazine, and (iii) stimulation with both active ingredients. […] Next morning, the blanket values were measured at 490 nm in an ELISA reader (FLUOstar Omega, BMG LABTECH) after the addition of 100 μL medium and 20 μL MTT substrate (CellTiter 96 AQueous One Solution Cell Proliferation Assay, Promega). […] The ex-tinction was measured every 24 hours during a period of 72 hours.
as §3

[4] = system: esophageal carcinoma cell lines OE19, OE33 und KYSE 140; assay: MTT proliferation assay, esophageal carcinoma cell lines; settings: OE19, OE33, KYSE 140; concentrations as in Example 1
Procedure: The proliferation rates of the cell lines were determined after stimulation with (i) biperiden, (ii) mepazine, and (iii) stimulation with both active ingredients. For this purpose, cells were seeded in plates with 96 wells at 5000 cells per well and incubated overnight at 37° C. and 5% CO2. Next morning, the blanket values were measured at 490 nm in an ELISA reader (FLUOstar Omega, BMG LABTECH) after the addition of 100 μL medium and 20 μL MTT substrate (CellTiter 96 AQueous One Solution Cell Proliferation Assay, Promega). Biperiden was added in increasing concentrations (3.71 μg/ml, 11.1 μg/ml und 29.6 μg/ml) in the form of solutions of biperiden hydrochloride (B5311 SIGMA-Aldrich, USA) and DMSO. Mepazine was added in increasing concentrations (15 μM and 25 μM) in the form of solutions of mepazine hydrochloride (MALT1 Inhibitor II, Calbiochem Merck, Millipore Billerica, USA). Combinations of both mepazine and biperiden were added in the following concentrations: 15 μM mepazine+3.71 μg/ml biperiden; 25 μM mepazine+3.71 μg/ml biperiden. The ex-tinction was measured every 24 hours during a period of 72 hours. […]

SMILES | reduction of proliferation rate ([1]; 29.6 μg/ml biperiden, p=0.022) | reduction of proliferation rate ([2]; 29.6 μg/ml biperiden, trend, p=0.077) | reduction in the proliferation rate [3] | proliferation of esophageal carcinoma cell lines [4] | reduction of proliferation rate ([1]; 15 μM mepazine, p=0.031) | proliferation ([1]; 25 μM mepazine, p=0.002) | reduction of proliferation rate ([2]; 15 μM mepazine, p=0.008) | reduction of proliferation rate ([2]; 25 μM mepazine, p=0.001)
OC(CCN1CCCCC1)(c1ccccc1)C1CC2C=CC1C2 (stereo not shown) [biperiden] | 71.6% | 98.2% | massive reduction | inhibited proliferation of esophageal carcinoma cell lines significantly |  |  |  | 
CN1CCCC(CN2c3ccccc3Sc3ccccc32)C1 (stereo not shown) [mepazine] |  |  | massive reduction | inhibited proliferation of esophageal carcinoma cell lines significantly | 69.4% | completely stopped | 56.1% | 86.9%
